Measurements: patent publication US6368788B1 (priority 1987, dated 2002)

Assays:
Burns = assay: Burns; parameters: species or system human; conditions: in vivo
Description: A total of 23 patients with cutaneous burns were treated with L-Glu-L-Trp either im or intranasally. Fourteen patients in a control group were treated using conventional methods.

Allogeneic skin grafts = assay: Allogeneic skin grafts; parameters: species or system human; conditions: in vivo
Description: L-Glu-L-Trp was administered to 17 patients receiving allogeneic skin grafts. 27 patients receiving similar grafts and conventional care served as the control group. L-Glu-L-Trp was administered im as a single daily injection of 50-100 μg on each of 5 consecutive days, or alternatively, intranasally at a dose of 1 μg/kg daily for 5 days. Graft rejection was manifest in 8 of the control patients.

Transfusion reactions = assay: Transfusion reactions; parameters: species or system human; conditions: in vivo
Description: Seventy-six patients (76) requiring hemotransfusion therapy with allogeneic blood were treated with L-Glu-L-Trp in the post-operative period, starting at day 4-6 post-op. Seventy-two patients (72) in a control group received conventional post-operative treatment. L-Glu-L-Trp treatment was administered as a single daily im dose of 100 μg on each of 5 consecutive days, or alternatively, at a dose of 1 μg/kg delivered on the same schedule by the intranasal route.

Chronic osteomyelitis = assay: Chronic osteomyelitis; parameters: species or system human; conditions: in vivo
Description: L-Glu-L-Trp was administered to 176 patients with chronic osteomyelitis of various etiology and bone localizations. The control group consisted of 88 patients receiving conventional treatment. L-Glu-L-Trp was administered im as a single daily dosage of 100 μg, or intranasally at a dose of 1 μg/kg daily, over a period of 10 days.

[1] = Acute osteomyelitis in adolescents (Protocol D); assay type: in vivo, human
Description: In 29 adolescents with osteomyelitis, 2 μg/kg L-Glu-L-Trp was administered im daily on each of 3-7 consecutive days, depending upon the severity of the infection. The control group consisted of 13 children who received conventional therapy with antibiotics.

Rauscher MuLV = assay: Anti-viral response to Rauscher MuLV; assay type: in vivo, mice; conditions: 50 μg/kg
Excerpt: Innate mechanisms of anti-viral immunity are important to survival of the host. The Rauscher murine leukemia virus (MuLV) is an example of a highly virulent animal retrovirus infection, first isolated and characterized by Dr. Rauscher from BALB/c mouse tissues in 1962. […] The virus employed in present GLP/blinded study was a murine leukemia complex known to induce progressive erythroleukemia in mice (i.e., Rauscher MuLV and replication-defective Rauscher spleen focus-forming virus). Disease manifested within about 6 days with death by about 50 days. Measurements of splenomegaly, blood reverse transcriptase, virus plaque assays (i.e., XC-plaque assay for viremia using SC-1 host cells) and serum anti-viral antibody titers were used to assess infection. Spleens achieved about 2.0 grams in weight within 21 days of infection, as compared with a normal spleen weights in an uninfected animals of about 0.1 gram.
Mice were inoculated with Rauscher MuLV complex (0.1 ml/7.8×10^4 PFU/mL) on day 0 and sacrificed on day 21. Test groups were comprised of 10 mice and control groups 6 mice. Control articles included saline and AZT (in drinking water at about 1.25 mg/mouse/day≈63 mg/kg/day/mouse). […] A non-infected group of mice was also sacrificed on day 21 to provide normal control values.
In EXAMPLE 38, SC-1 cells were originally derived from murine embryos, and XC cells (a rat tumor cell line induced by Rous Sarcoma Virus) were obtained from the ATCC in Rockville, Md.

Sarcoma 180 tumor = assay: Sarcoma 180 bilateral tumor size; assay type: in vivo, Swiss-Webster mice; conditions: for Mean Tumor Weight Left / Mean Tumor Weight Right: mean leg weight treated - normal control
Description: Anti-tumor activity of L-Glu-L-Trp was evaluated using the murine Sarcoma 180 tumor (ATCC CCL-8 CCRF S-180 II) injected at 2×10^6 cells/0.1 mL im into each rear flank of Swiss-Webster mice. Groups consisted of 10 animals. L-Glu-L-Trp was administered in a single 0.1 mL dose of either 10 μg/kg, 75 μg/kg, 250 μg/kg or 1000 μg/kg. Tumor size was evaluated by surgically removing and weighing the affected limbs, and comparing the weight with the weight of normal control (non-tumor) limbs. The first prophylactic drug regimen (PDR-1) consisted of 5 consecutive daily ip injections commencing on day -5 and ending of day -1. The second prophylactic drug regimen (PDR-2) consisted of 5 consecutive daily im injections to the left rear flank (tumor site) beginning on day -5 and ending on day -1. Sarcoma 180 cells were injected im on day 0. Saline 0.1 mL served as the negative control.

Herpes vulgaris = conditions: in combination with interferon; 7-10 outbreaks per year before

Substance: L-Glu-L-Trp
- Clinical outcome (Burns): accelerated rate of wound healing
- Clinical outcome (Allogeneic skin grafts): prevented infectious complications and delayed graft rejection
- Clinical outcome (Transfusion reactions): None of L-Glu-L-Trp treated patients showed clinical manifestations of allogeneic hemotransfusion reactions
- Clinical outcome (Chronic osteomyelitis): pronounced positive effect on clinical course
- Failure rate (wounds failed to heal) ([1]; 1 of 29): 3%
- T-cell counts ([1]; in vivo): nearly doubled
- Wounds closed with healing earlier than control group ([1]; in vivo): 2 to 3 days
- Fevers resolved sooner ([1]; on the average): 1 to 2 days
- Viremia (Rauscher MuLV): significantly decreased viremia
- Percent of Control Tumor Weight Left (Sarcoma 180 tumor; PDR-1 ip, 10 μg/kg): 120%
- Mean Tumor Weight Left (Sarcoma 180 tumor; PDR-1 ip, 10 μg/kg): 3.0
- Mean Tumor Weight Right (Sarcoma 180 tumor; PDR-1 ip, 10 μg/kg): 2.9
- Percent of Control Tumor Weight Left (Sarcoma 180 tumor; PDR-1 ip, 75 μg/kg): 120%
- Mean Tumor Weight Left (Sarcoma 180 tumor; PDR-1 ip, 75 μg/kg): 3.0
- Percent of Control Tumor Weight Right (Sarcoma 180 tumor; PDR-1 ip, 75 μg/kg): 130%
- Mean Tumor Weight Right (Sarcoma 180 tumor; PDR-1 ip, 75 μg/kg): 3.0
- Percent of Control Tumor Weight Left (Sarcoma 180 tumor; PDR-1 ip, 250 μg/kg): 92%
- Mean Tumor Weight Left (Sarcoma 180 tumor; PDR-1 ip, 250 μg/kg): 2.3
- Percent of Control Tumor Weight Right (Sarcoma 180 tumor; PDR-1 ip, 250 μg/kg): 83%
- Mean Tumor Weight Right (Sarcoma 180 tumor; PDR-1 ip, 250 μg/kg): 1.9
- Percent of Control Tumor Weight Left (Sarcoma 180 tumor; PDR-1 ip, 1000 μg/kg): 52%
- Mean Tumor Weight Left (Sarcoma 180 tumor; PDR-1 ip, 1000 μg/kg): 1.3
- Percent of Control Tumor Weight Right (Sarcoma 180 tumor; PDR-1 ip, 1000 μg/kg): 43%
- Mean Tumor Weight Right (Sarcoma 180 tumor; PDR-1 ip, 1000 μg/kg): 1.0
- Percent of Control Tumor Weight Left (Sarcoma 180 tumor; PDR-2 im, 10 μg/kg): 96%
- Mean Tumor Weight Left (Sarcoma 180 tumor; PDR-2 im, 10 μg/kg): 2.4
- Mean Tumor Weight Right (Sarcoma 180 tumor; PDR-2 im, 10 μg/kg): 2.6
- Percent of Control Tumor Weight Left (Sarcoma 180 tumor; PDR-2 im, 75 μg/kg): 96%
- Mean Tumor Weight Left (Sarcoma 180 tumor; PDR-2 im, 75 μg/kg): 2.4
- Percent of Control Tumor Weight Right (Sarcoma 180 tumor; PDR-2 im, 75 μg/kg): 132%
- Mean Tumor Weight Right (Sarcoma 180 tumor; PDR-2 im, 75 μg/kg): 3.3
- Percent of Control Tumor Weight Left (Sarcoma 180 tumor; PDR-2 im, 250 μg/kg): 72%
- Mean Tumor Weight Left (Sarcoma 180 tumor; PDR-2 im, 250 μg/kg): 1.8
- Percent of Control Tumor Weight Right (Sarcoma 180 tumor; PDR-2 im, 250 μg/kg): 48%
- Mean Tumor Weight Right (Sarcoma 180 tumor; PDR-2 im, 250 μg/kg): 1.1
- Percent of Control Tumor Weight Left (Sarcoma 180 tumor; PDR-2 im, 1000 μg/kg): 48%
- Mean Tumor Weight Left (Sarcoma 180 tumor; PDR-2 im, 1000 μg/kg): 1.2
- Percent of Control Tumor Weight Right (Sarcoma 180 tumor; PDR-2 im, 1000 μg/kg): 57%
- Mean Tumor Weight Right (Sarcoma 180 tumor; PDR-2 im, 1000 μg/kg): 1.3
- Tumor growth (Sarcoma 180 tumor; prophylactic ip or im, 250 μg/kg and 1000 μg/kg): inhibited subsequent im tumor growth
- Outbreaks after treatment (Herpes vulgaris): less than one outbreak per year
